Laboratory results reported in patent US11261189B2, “Substituted 2,4 diamino-quinoline as new medicament for fibrosis, autophagy and cathepsins B (CTSB), L (CTSL) and D (CTSD) related diseases” (Genoscience Pharma, priority 2018, dated 2022).
Counter-ions that a name gives are not always drawn.

Molecular target: T1, cathepsin B (CTSB) (Homo sapiens, UniProt P07858)
T1 construct: endogenous in cells; host or cells: HepG2
Experiment: Cathepsin B (CTSB) catalytic activity in lysates of treated HepG2 cells (Z-RR-AMC substrate)
Type: cell-based
Conditions: for CTSB activity versus NT: 6 hours of treatment
Procedure: Lysosomal functions was investigated in a hepatocellular carcinoma (HCC) cell line HepG2 after 6 hours and 24 hours of treatment with compound 2-3 (the hydrochloride salt form of compound 2-2) using functional assays of some lysosomal enzymes activity: two cysteine proteinases: cathepsin B (CTSB) and cathepsin L (CTSL), and one aspartic proteinase: cathepsin D (CTSD). Two sets of three concentrations of compound 2-3 (1 μM, 2 μM, and 4 μM for 6 hours, and 0.5 μM, 1 μM and 2 μM for 24 hours) were tested at least in triplicate and four independent experiments were performed. Salinomycin (7.5 μM for 6 hours and 24 hours) was used as a positive control.
The HepG2 cell line was maintained in DMEM (Dulbecco's Modified Eagle Media) high glucose (Cat #L0103-500, Dutscher) containing 1% penicillin-streptomycin (Cat #P06-07100, Dutscher) and 10% FBS (Fetal Bovine Serum) (Cat #11543407, Life Technologies). Cells were cultured at 37° C. with 5% CO2.
The day before the experiment, 6-well plates (Cat #353046, Dutscher) with 250,000 cells in 2.7 mL of medium per well were prepared.
Compound 2-3 was dissolved with filtrated H2O mQ to make a 10 mM stock solution and serial working solutions (10× solutions) were prepared with the diluent (=culture medium with 0.4% H2O mQ) at 5 μM, 10 μM, 20 μM and 40 μM: the “dilution 1” is made from the 10 mM stock solution in the culture medium and the following serial dilutions were made in the diluent to maintain a constant percentage of H2O.
Salinomycin [CAS 53003-10-4] was used as positive control and was dissolved with methanol to make a 10 mM stock solution and a 10× solution at 75 μM was prepared with the culture medium.
300 μL of compound 2-3 10× solutions (solutions at 10 μM, 20 μM and 40 μM for 6 hours of treatment and solutions at 5 μM, 10 μM and 20 μM for 24 hours of treatment) or 300 μL of diluent (=non-treated (NT) condition) or 300 μL of Salinomycin 10× solution were dispensed in the appropriate wells (4 wells/condition). After cells treatment, 6-well plates were returned to incubator for 6 hours or 24 hours.
After 6 hours or 24 hours of cells treatment, the medium was removed from each well. The cells were carefully rinsed with PBS (phosphate-buffered saline, Cat #L0615-500, Dutscher) and detached with 500 μL per well of a trypsin solution. After 5 min of trypsin (Cat #L0930-100, Dutscher) incubation at 37° C., 800 μL of medium was added per well and transferred to a 1.5 mL tube. Then, 800 μL of PBS was used to rinse each well and the corresponding solution was pooled in each corresponding 1.5 mL tube. […] Total protein concentration was assessed using the Bradford reagent (Cat #B6916-500ML, Sigma-Aldrich) and cellular lysates were stored at −80° C. until catalytic activity measurement. […]

**Q.** For `CC(C)(C)NC1CCN(c2cc(NCc3ccc(Cl)cc3)nc3ccccc23)CC1` [2-3, 2-(4-chlorobenzylamino)-4-(4-tert-butylaminopiperidin-1-yl)-quinoline Hydrochloride Salt], which “CTSB activity versus NT” value (HepG2, 2 μM) is on record?
**A.** 75.4%

**Q.** And the “CTSB activity versus NT” value (HepG2, 4 μM)?
**A.** 54.0%

**Q.** What about the “inhibition of cathepsin B (CTSB) compare to the control” value (HepG2, 2 μM, 4 μM for 6 hours and 2 μM for 24 hours, p<0.05) of the same compound?
**A.** statistically significant
